Laboratory results as given in a melting point compilation (Tetko et al.; mined from patent text by program, amines drawn as free bases though some values may be those of a salt).

Structure (SMILES)	melting point [°C]
Cc1cccc(C2CCN(C(=O)Oc3ccccc3)CC2)c1	127 to 130
COc1cc2c(cc1OC)-c1cc(=O)n(C)c(=O)n1CC2	260 to 262
COc1ccc(C=CC(=O)c2ccc(OCC3CO3)cc2)cc1 (stereo not drawn)	85 to 87
CCCCCCCCCCCCCCCCCCCc1cc(N)cc(CCCCCCCCCCCCCCCCCCC)c1	51 to 53
O=C(NN1CCCCCC1)C(CS)Cc1ccccc1 (stereo not drawn)	82
COc1ccccc1[C@H](c1cccc2ccccc12)[C@@](C)(C#N)C(=O)N1CCN(c2cccc(Br)c2)CC1	180 to 182
CCOC(=O)C=Cc1cn(CCCC2(C)OCCO2)c2ccccc12	61 to 62
CCOC(=O)c1cccn2cc(C(OCC)OCC)nc12	98 to 100
CC1CCNC(=C[N+](=O)[O-])N1c1ccc(Cl)nc1 (stereo not drawn)	184
COc1ccc(-n2nc(C)c3c(C(=O)Nc4c(C)ccnc4C)cc(C)nc32)cc1	224 to 227
CNCC1CC(C)(O)c2ccc(S(=O)(=O)c3ccccc3)cc2O1 (stereo not drawn)	164 to 165
CCCCOCC(CN1C(=O)NC(=O)C(CC)(c2ccccc2)C1=O)OC(N)=O (stereo not drawn)	104
Cc1cc(OCc2sc(-c3ccc(C(F)(F)F)cc3)nc2C)ccc1CCC(=O)O	141 to 143
CCOCc1nc2c(N)nc3ccccc3c2n1CC1(OCCS(C)(=O)=O)CCN(C(C)=O)CC1	208 to 210
O=C1Cc2c(cccc2OCC2CO2)N1 (stereo not drawn)	164 to 166
CN(C)C1CCN(C2c3ccccc3Oc3ccccc32)CC1	92 to 93
CCCOc1ccccc1-c1nc(O)cc(C(N)=O)n1	234
CC(C)(C)c1cc(CSP(=S)(C2CCCCC2)C2CCCCC2)cc(C(C)(C)C)c1O	129 to 131
Cc1nc2nc(S(=O)(=O)Cl)nn2c(C)c1Cl	131 to 133
O=C1NCCSc2ccsc21	186 to 188
Cc1ccc(Cn2[nH]c(N)cc2=O)cc1Cl	130 to 131
CCCCCCCCS(=O)(=O)C(Cc1ccc(OCCN2CCCCC2)cc1)C(=O)NO (stereo not drawn)	69 to 70
COC(=O)CC(O)CC(O)C=Cc1c2c(nn1-c1ccc(F)cc1)C(Cc1ccc(-c3ccccc3)cc1)CCC2 (racemic)	118 to 119
Clc1ccccc1-c1nc(-c2ccc3c(c2)OCO3)c(-c2ccc3c(c2)OCO3)[nH]1	168 to 170
CC(=O)SCC(Cc1ccc(N(C)C)cc1)C(=O)Nc1cccc(C(=O)O)c1 (stereo not drawn)	71 to 73

Structure (SMILES)	melting point [°C]
CC1(O)CC(=O)OC(CCc2ccc(Cl)cc2)C1Br (stereo not drawn)	116 to 119
COC(=O)C1=Cc2cc(Br)ccc2NCC1	143 to 145
Cc1c(C(=O)Nc2ccc(N3CCC(O)CC3)c(C#N)c2)cnn1-c1ccc(Cl)cc1	247
N#Cc1c(N2CCN(C(=O)c3cccs3)CC2)c2ccccc2[nH]c1=O	264
CCC(CC)(CC(=O)Nc1cccc(SCc2ccc3cccc(F)c3n2)c1)C(=O)O	80 to 83
CC(C)C(=O)c1ccc2oc3ncccc3c(=O)c2c1	155 to 156
CC(=O)OCC1CN(C(=O)OC(C)(C)C)c2cc(OCc3ccccc3)c3ncccc3c21 (stereo not drawn)	172 to 173
CN(C)CCOc1cc2c(Nc3ccc(Cl)cc3Cl)c(C#N)cnc2cn1	75 to 79
N#CC(NC(=O)c1cccn2cc(-c3ccccc3)nc12)c1cccc(Cl)c1 (stereo not drawn)	210 to 211
COc1cccc(CCCCCCOc2ccc(C(=O)O)c(O)c2)c1OC	115 to 116
NCCNC(=O)COc1ccc(C2=NNC(=O)CC2)cc1	176 to 178
COCCCCCCCCCCCC(N)=S	86.8 to 89.2
CCC(=O)Oc1ccc(N)cc1C(=O)O	213 to 220
CCOC(=O)C(C)=NN(C)c1ccc(C(F)(F)F)cc1	71 to 72
O=C1CCCc2c(O)cccc2N1	244 to 245
O=C(CCCCCl)c1cc2c3c(c1)CC(=O)N3CCC2	89 to 90
Cc1ccc(N2C(=O)C(O)=C(C(=NOCC(=O)O)c3ccc(C(C)C)cc3)C2c2ccc(OC(F)(F)F)cc2)nn1 (stereo not drawn)	227
Cn1c(=O)c2cnc(-c3ccccc3)nc2n(C)c1=O	279 to 281
COc1cc2[nH]c(=O)c([N+](=O)[O-])c(C(F)(F)F)c2cc1OC	270
CCCCc1cc(OCc2ccc(-c3ccccc3C(=O)O)cc2)c2ccccc2n1	145
CCCCCCCOCCC(=O)Oc1ccc(N=Nc2ccc(OCCCCCC)cc2)cc1	69
COc1ccc(C(=O)C2=C(c3ccccc3)c3ccc(OC)cc3C2)cc1	113 to 114
C=CCOc1ccc2c(C)cc(=O)oc2c1C	107 to 108
CC(C)c1cc2c(c(O)c1-c1ccc3c(c1)CCCC3)CCCC2	110
CC(=O)Nc1nc(CCc2ccc(N)cc2)c(C(=O)NCc2ccc([N+](=O)[O-])cc2)s1	120 to 121

Structure (SMILES)	melting point [°C]
N[C@@H]1CN2C(=O)N(c3cc(Cl)cc(Cl)c3)C(=O)[C@@]2(Cc2ccc(Br)cc2)C1	64.4
Cc1cccc(CN(CCC(=O)O)c2nc(N)nc(Cl)n2)c1	168 to 170
CCSCc1cnn(-c2c(Cl)cc(C(F)(F)F)cc2Cl)n1	53 to 54
Oc1ncnc2c(-c3ccc(Br)cc3)cnn12	> 300
O=c1ccn(-c2cccc(C(F)(F)F)c2)nc1-c1ncnn1-c1ccccc1	167 to 168
COC1(c2cccc(S(=O)(=O)c3ccc4c(c3)C(C)(C)S(=O)(=O)C4(C)C)c2)CCOCC1	115
CCOC(=O)Nc1cc(OCC)cc2c1CC(C)O2 (stereo not drawn)	64
COc1ccc(Nc2c([N+](=O)[O-])ccc(Cl)c2C(=O)O)cc1	205 to 213
CCn1cc(C(=O)O)c(=O)c2ccc(N3CCN(C)CC3)cc21	215
COc1ccc(-c2nc(NS(=O)(=O)c3ccc(C(C)(C)C)cc3)c(Oc3ccccc3OC)c(OC[C@@H](O)CO)n2)cc1	141 to 142
O=C(O)Cc1[nH]nc2c1CCCC2	155 to 156
CN(CCCSc1ccncc1)C(=O)c1cccs1	72 to 72.5
COc1cnccc1CCCOc1cccnc1Oc1ccccc1	101 to 102
CCS(=O)(=O)Nc1cc(-n2ncc(=O)n(C)c2=O)c(F)cc1C#N	233
O=C1c2cccc(Sc3ccccc3)c2C(=O)c2cccc(Nc3cccc([N+](=O)[O-])c3)c21	246
Cc1ccc(C(C)(CCCCC(=O)CCCCC(C)(C(=O)O)c2ccc(C)cc2)C(=O)O)cc1 (stereo not drawn)	48 to 50
COc1cc2c(c3c1OC(C)(C)C3)C(c1cccc(N3CCN(CC(N)=O)S3(=O)=O)c1)=NC(C)(C)C2	206 to 208
FC(F)(F)c1cc(C(F)(F)F)c2[nH]c(N3CCN(c4ncccc4Br)CC3)nc2c1	166
COc1cccc(Oc2c(NS(=O)(=O)c3ccc(C(C)(C)C)cc3)ncnc2OCCOc2ncc(C(C)=O)cn2)c1	142 to 144
OC1(c2cccc(OCc3ccccc3)c2)CCOCC1	84 to 86
Cc1cc(I)ccc1Nc1c(-c2nnc(N)o2)ccc(F)c1F	184
Cc1ccc(C(C)(C)Cl)cc1C	-20 to -19
COc1cn(-c2cccnc2)nc(-c2ccnn2-c2ccccc2)c1=O	210 to 212
CCCc1c2c(c(F)c3c(=O)cc(C(=O)OCC)oc13)CCCC2	126 to 129
CC1(C)C(C=CC(=O)Oc2ccccc2)C1C(=O)O (stereo not drawn)	57

Structure (SMILES)	melting point [°C]
NC(=O)C(CCCCCCCCNC(=O)c1ccccc1O)CC(=O)O (stereo not drawn)	123 to 125
N=C(N)NCCCC(NC(=O)CCS)C(=O)O (stereo not drawn)	230
CC(=O)c1ccc(C(F)(F)C(F)(F)c2ccccc2)cc1	128 to 133
CC(C)c1nc(C(C)C)c(CSc2ccc(F)cc2)c(-c2ccc(F)cc2)c1CO	119 to 121
CC(C)(C)c1cc(CCc2ccccc2NC(=O)NC2CCN(CCc3ccccc3)CC2)cc(C(C)(C)C)c1O	175 to 176
O=C1Cc2cc3c(cc2C(c2ccccc2)=NN1c1ccc([N+](=O)[O-])cc1)OCO3	> 200
CCCC(=O)c1cnc(C(CC2CCCC2)c2ccc(S(C)(=O)=O)cc2)[nH]1 (stereo not drawn)	159 to 163
CCc1cn2c(N)c(Cl)cc(C(=O)NCC3CCN(CC(C)(C)OC)CC3)c2n1	211
COC(=O)Cc1ccc(OCCNC(=O)C2Cc3c(OC)cccc3N2S(=O)(=O)c2ccc(-c3cccc(C(F)(F)F)c3)cc2)cc1 (stereo not drawn)	64
O=[N+]([O-])c1ccccc1NCCCCCCCCCCCCNc1ccccc1[N+](=O)[O-]	79 to 80
Cn1cnc2nc(Oc3ccccc3)nn2c1=S	209 to 211
COc1cc2[nH]c(=O)c3c(c2cc1OC)CCN(CCC1CCCCC1)C3	195 to 198
Cn1ncc(C(=O)Nc2ccc(-n3nc(C(F)(F)F)cc3C(F)(F)F)cc2)c1[N+](=O)[O-]	214 to 216
C[C@@H](n1ncn(-c2ccc(F)cc2)c1=O)[C@@]1(c2ccc(F)cc2F)CO1	100 to 101
COC(=O)COc1c(Br)cc(-c2c3ccccc3c(Br)c3oc4ccccc4c23)cc1Br	188 to 189
COC(=O)c1cccc2c1c1c(n2Cc2ccccc2)CN(Cc2ccccc2)CC1=O	198 to 199
CC(Cc1cccc(NC(N)=O)c1)NC=O (stereo not drawn)	133 to 136
O=C(/C=C/C=C(c1ccc(F)cc1)c1ccc(F)cc1)NCCCCc1cccnc1	155 to 156
CNCc1ccc([C@H]2CC[C@@H](N(C)C(=O)c3ccc(Cl)cc3)CC2)cc1	110 to 112
Cn1cc(Cc2ccc(C(=O)N3CCC(N4CCCC4)C3)cc2)c2ccccc21 (stereo not drawn)	73 to 78
COc1cccc2c(=O)c3ccc(SC)cc3oc12	201 to 203
Cc1oc2ccccc2c1C(=O)NCc1ccc2c(Br)c(OCC#N)ccc2c1	180 to 182
CS(=O)c1ccc(-c2nn(CC3CC3)c(=O)cc2-c2ccc(F)cc2)cc1 (stereo not drawn)	133 to 134
